From the NIST ThermoML archive (doi:10.1021/acs.jced.7b00201)

Experiment: xn = mol fraction of the nth substance listed
Settings: 100 kPa, Liquid; for viscosity: Falling or rolling sphere viscometry; for mass density: Vibrating tube method

OCC1CC1 [cyclopropylmethanol] + CCCCCCCCCCCC
Settings | mass density [kg/m3] | viscosity [mPa·s]
293.15 K, x1 = 0.1039 | – | 1.484
293.15 K, x1 = 0.1135 | 754.8 | –
293.15 K, x1 = 0.2032 | – | 1.521
293.15 K, x1 = 0.2127 | 761.38 | –
293.15 K, x1 = 0.3022 | – | 1.605
293.15 K, x1 = 0.3059 | 768.71 | –
293.15 K, x1 = 0.3804 | 775.49 | –
293.15 K, x1 = 0.3997 | – | 1.683
293.15 K, x1 = 0.4993 | – | 1.884
293.15 K, x1 = 0.5067 | 789.46 | –
293.15 K, x1 = 0.5994 | – | 2.084
293.15 K, x1 = 0.6019 | 802.62 | –
293.15 K, x1 = 0.7 | – | 2.335
293.15 K, x1 = 0.7011 | 819.64 | –
293.15 K, x1 = 0.7921 | 839.53 | –
293.15 K, x1 = 0.797 | – | 2.671
293.15 K, x1 = 0.8991 | 870.68 | –
293.15 K, x1 = 0.9004 | – | 3.205
293.15 K, x1 = 1 | 912.99 | 4.029
298.15 K, x1 = 0.1039 | – | 1.354
298.15 K, x1 = 0.1135 | 751.08 | –
298.15 K, x1 = 0.2032 | – | 1.382
298.15 K, x1 = 0.2127 | 757.63 | –
298.15 K, x1 = 0.3022 | – | 1.455
298.15 K, x1 = 0.3059 | 764.92 | –
298.15 K, x1 = 0.3804 | 771.68 | –
298.15 K, x1 = 0.3997 | – | 1.52
298.15 K, x1 = 0.4993 | – | 1.688
298.15 K, x1 = 0.5067 | 785.59 | –
298.15 K, x1 = 0.5994 | – | 1.854
298.15 K, x1 = 0.6019 | 798.72 | –
298.15 K, x1 = 0.7 | – | 2.068
298.15 K, x1 = 0.7011 | 815.7 | –
298.15 K, x1 = 0.7921 | 835.57 | –
298.15 K, x1 = 0.797 | – | 2.35
298.15 K, x1 = 0.8991 | 866.69 | –
298.15 K, x1 = 0.9004 | – | 2.801
298.15 K, x1 = 1 | 908.94 | 3.485
303.15 K, x1 = 0.1039 | – | 1.241
303.15 K, x1 = 0.1135 | 747.35 | –
303.15 K, x1 = 0.2032 | – | 1.276
303.15 K, x1 = 0.2127 | 753.86 | –
303.15 K, x1 = 0.3022 | – | 1.325
303.15 K, x1 = 0.3059 | 761.1 | –
303.15 K, x1 = 0.3804 | 767.83 | –
303.15 K, x1 = 0.3997 | – | 1.38
303.15 K, x1 = 0.4993 | – | 1.521
303.15 K, x1 = 0.5067 | 781.69 | –
303.15 K, x1 = 0.5994 | – | 1.662
303.15 K, x1 = 0.6019 | 794.79 | –
303.15 K, x1 = 0.7 | – | 1.842
303.15 K, x1 = 0.7011 | 811.73 | –
303.15 K, x1 = 0.7921 | 831.56 | –
303.15 K, x1 = 0.797 | – | 2.081
303.15 K, x1 = 0.8991 | 862.66 | –
303.15 K, x1 = 0.9004 | – | 2.463
303.15 K, x1 = 1 | 904.85 | 3.037
308.15 K, x1 = 0.1039 | – | 1.142
308.15 K, x1 = 0.1135 | 743.6 | –
308.15 K, x1 = 0.2032 | – | 1.171
308.15 K, x1 = 0.2127 | 750.06 | –
308.15 K, x1 = 0.3022 | – | 1.213
308.15 K, x1 = 0.3059 | 757.26 | –
308.15 K, x1 = 0.3804 | 763.96 | –
308.15 K, x1 = 0.3997 | – | 1.258
308.15 K, x1 = 0.4993 | – | 1.378
308.15 K, x1 = 0.5067 | 777.76 | –
308.15 K, x1 = 0.5994 | – | 1.497
308.15 K, x1 = 0.6019 | 790.82 | –
308.15 K, x1 = 0.7 | – | 1.65
308.15 K, x1 = 0.7011 | 807.72 | –
308.15 K, x1 = 0.7921 | 827.52 | –
308.15 K, x1 = 0.797 | – | 1.853
308.15 K, x1 = 0.8991 | 858.59 | –
308.15 K, x1 = 0.9004 | – | 2.176
308.15 K, x1 = 1 | 900.74 | 2.661
313.15 K, x1 = 0.1039 | – | 1.055
313.15 K, x1 = 0.1135 | 739.84 | –
313.15 K, x1 = 0.2032 | – | 1.079
313.15 K, x1 = 0.2127 | 746.24 | –
313.15 K, x1 = 0.3022 | – | 1.114
313.15 K, x1 = 0.3059 | 753.4 | –
313.15 K, x1 = 0.3804 | 760.06 | –
313.15 K, x1 = 0.3997 | – | 1.153
313.15 K, x1 = 0.4993 | – | 1.254
313.15 K, x1 = 0.5067 | 773.81 | –
313.15 K, x1 = 0.5994 | – | 1.355
313.15 K, x1 = 0.6019 | 786.82 | –
313.15 K, x1 = 0.7 | – | 1.485
313.15 K, x1 = 0.7011 | 803.68 | –
313.15 K, x1 = 0.7921 | 823.45 | –
313.15 K, x1 = 0.797 | – | 1.658
313.15 K, x1 = 0.8991 | 854.48 | –
313.15 K, x1 = 0.9004 | – | 1.933
313.15 K, x1 = 1 | 896.58 | 2.344
318.15 K, x1 = 0.1039 | – | 0.977
318.15 K, x1 = 0.2032 | – | 0.998
318.15 K, x1 = 0.3022 | – | 1.028
318.15 K, x1 = 0.3997 | – | 1.06
318.15 K, x1 = 0.4993 | – | 1.146
318.15 K, x1 = 0.5994 | – | 1.232
318.15 K, x1 = 0.7 | – | 1.343
318.15 K, x1 = 0.797 | – | 1.491
318.15 K, x1 = 0.9004 | – | 1.725
318.15 K, x1 = 1 | – | 2.074
